Patent publication US4379165A, “Anti-convulsant” (priority 1981, dated 1983)
Entries after “also recorded” stand apart in the source; their conditions may differ. Like-named read-outs stand apart in the source and are kept apart here.

Key:
[1] = maximal electroshock seizure (MES) pattern test, rats; settings: rat, in vivo, po, PI (TD50/ED50) MES, rats (Table 7; title of Table 5 prints Mice)
Method: (§1) The solution was prepared by dissolving the compound in 30% polyethylene glycol 400. The compound was injected either orally or intraperitoneally in a volume of 0.01 ml/g body weight in mice and 0.04 ml/10 g body weight in rats.
(§2) The profile of anti-convulsant activity for each substance was established by five tests: one electrical and four chemical. The electrical test employed was the maximal electroshock seizure (MES) pattern test. […] These tests are conducted by administering the anti-convulsant compound or drug to the animals then giving the convulsive amount of electrical energy or chemical convulsant and measuring the ability of the test compound to prevent the production of convulsions.
(§3) This test measures the ability of the test drug to abolish the hind-limb tonic-extensor component of maximal seizures induced by 50 mA of current delivered to the animals for 0.2 seconds.

[2] = test system: maximal electroshock seizures; experiment: as above; settings: for ED50: Rattus norvegicus, po, read-out: ED50 MES
Method: as §1, §2, §3

[3] = hypnosis (loss of righting reflex), HD50; settings: mouse, in vivo, ip
Method: as §1
(§4) (h) HD50=Hypnotic dose in 50% of the subjects tested.
(§5) (l) Slope of regression line--This represents the rate of change in response (effect) for a change in dose. The higher the numerical value of the slope, the greater the rate of change in response.

[4] = test system: righting reflex; experiment: hypnosis (loss of righting reflex), HD50; settings: mice; intraperitoneal
Method: as §1, §4, §5

[5] = test system: convulsions; experiment: anti-convulsant activity, overall statements from animal studies; assay type: in vivo; settings: mice and rats
[6] = test system: ability to maintain balance on a rotating rod
Method: as §1
(§6) Untreated or normal animals can easily maintain their balance in this test.

[7] = test system: subcutaneous bicuculline seizure threshold; experiment: subcutaneous Bicuculline Seizure Threshold Test (sc Bic); settings: for ED50: Mus musculus, ip, read-out: ED50 Bicuculline, mice
Method: as §1
(§7) The profile of anti-convulsant activity for each substance was established by five tests: one electrical and four chemical. […] The four chemical tests included the subcutaneous Metrazol Seizure Threshold Test (sc Met), subcutaneous Bicuculline Seizure Threshold Test (sc Bic), subcutaneous Picrotoxin Seizure Threshold Test (sc Pic), and the subcutaneous Strychnine Seizure Pattern Test (sc Strych). These tests are conducted by administering the anti-convulsant compound or drug to the animals then giving the convulsive amount of electrical energy or chemical convulsant and measuring the ability of the test compound to prevent the production of convulsions.
(c) scBic=Subcutaneous bicuculline seizure threshold test.
(§8) (j) PI=Protective index, defined as the ratio of TD50 to ED50 (TD50/ED50).

[8] = Rotorod Toxicity Test, rats; assay type: in vivo; settings: rat, in vivo, po
Method: as §1, §6

[9] = test system: ability to maintain balance on a rotating rod; experiment: Rotorod Toxicity Test, rats; assay type: in vivo; settings: for animals toxic: intraperitoneal, footnote of Table 5
Method: as §1, §6

[10] = test system: subcutaneous picrotoxin seizure threshold; experiment: animal or person; settings: Mus musculus, ip, read-out: ED50 Picrotoxin
Method: as §1
(§9) The profile of anti-convulsant activity for each substance was established by five tests: one electrical and four chemical. The electrical test employed was the maximal electroshock seizure (MES) pattern test. The four chemical tests included the subcutaneous Metrazol Seizure Threshold Test (sc Met), subcutaneous Bicuculline Seizure Threshold Test (sc Bic), subcutaneous Picrotoxin Seizure Threshold Test (sc Pic), and the subcutaneous Strychnine Seizure Pattern Test (sc Strych). These tests are conducted by administering the anti-convulsant compound or drug to the animals then giving the convulsive amount of electrical energy or chemical convulsant and measuring the ability of the test compound to prevent the production of convulsions.
(§10) (d) scPic=Subcutaneous picrotoxin seizure threshold test.
(§11) (j) PI=Protective index, defined as the ratio of TD50 to ED50 (TD50/ED50). The PI is a measure of the safety of the drug. A high PI value indicates a greater margin of safety between the effective dose for the pharmacological effect and the toxic dose producing side-effects. A compound with a high PI would be a safer drug to use.

[11] = lethality, LD50; assay type: in vivo; settings: mouse, in vivo, ip, mice, intraperitoneal; for LD50 at 24 h: 24-hour period
Method: (§12) The anti-convulsant amide (4) was administered to mice and rats as a solution. The solution was prepared by dissolving the compound in 30% polyethylene glycol 400. The compound was injected either orally or intraperitoneally in a volume of 0.01 ml/g body weight in mice and 0.04 ml/10 g body weight in rats.

[12] = test system: subcutaneous picrotoxin seizure threshold; settings: mice
Method: as §1, §9, §10, §11

[13] = in vivo; settings: mouse
Method: as §1, §2, §3

[14] = subcutaneous Metrazol Seizure Threshold Test (sc Met), mice; settings: mouse, in vivo, PI (TD50/ED50) sc Met, mice
Method: as §1, §9
(§13) (b) scMet=Subcutaneous metrazol seizure threshold test. The test measures the ability of the test drug to afford complete protection against a subcutaneously administered convulsant dose of metrazol.
as §8

[15] = test system: subcutaneous metrazol seizure threshold; experiment: as above; settings: for ED50: Mus musculus, read-out: ED50 sc Met
Method: as §1, §9, §13, §8

[16] = test system: Salmonella indicator organisms; experiment: in vitro microbial mutagenicity assays; settings: 1.0 ug to 10,000.0 ug per plate
Method: The amide was examined for mutagenic activity in a series of in vitro microbial assays employing Salmonella indicator organisms. The compound was tested directly and in the presence of liver microsomal enzyme preparations from Aroclor-induced rats. The dose range employed for the evaluation was from 1.0 ug to 10,000.0 ug per plate. The results of the tests conducted on the amide in the absence of a metabolic activation system and in the presence of a rat liver activation system were negative.

[17] = test system: maximal electroshock seizures; experiment: maximal electroshock seizure (MES) pattern test, mice; settings: for ED50: Mus musculus, read-out: ED50 MES
Method: as §1, §2, §3

[18] = test system: subcutaneous strychnine seizure pattern; settings: mice
Method: as §1, §7
(§14) (e) ScStrych=Subcutaneous strychnine seizure pattern test. The test measures the ability of the test drug to abolish all toxic components of seizures induced by the subcutaneous injection of a convulsant dose of strychnine.

[19] = test system: subcutaneous metrazol seizure threshold; experiment: subcutaneous Metrazol Seizure Threshold Test (sc Met), rats; settings: for animals protected vs sc Met test: intraperitoneal, footnote of Table 5; for ED50: Rattus norvegicus, po
Method: as §1, §9, §13, §8

[20] = in vivo; settings: mouse; remark: listed apart in the source
Method: as §1, §6

[21] = test system: subcutaneous strychnine seizure pattern; experiment: animal or person; settings: Mus musculus, ip, read-out: ED50 Strychnine
Method: as §1, §7, §14

[22] = in vivo; settings: mouse, ip
Method: as §1, §4, §5

[23] = subcutaneous Metrazol Seizure Threshold Test (sc Met), rats; settings: rat, in vivo, po
Method: as §1, §9, §13, §8

[24] = test system: lethality; experiment: lethality, LD50; assay type: in vivo; settings: mice; intraperitoneal; 24-hour period
Method: as §12

[25] = rats (Table 7; title of Table 5 prints Mice), oral
[26] = mice, oral, at / up to 300 (mg/kg)
[27] = rats (Table 7; title of Table 5 prints Mice), oral, at 300 (mg/kg)
[28] = mice, intraperitoneal, up to 100 (mg/kg)

Compound: CC(NC(=O)c1ccc(N)cc1)c1ccccc1 (stereo not drawn) [4-amino-N-(alpha-methylbenzyl)-benzamide]
- selectivity ratio [1]: 10.6
- ED50 [2]: 16.1 mg/kg
- PI (TD50/ED50) MES [2, 25]: 10.5
- TD50 [3]: 462 mg/kg
- HD50 (righting reflex) [4]: 461.76 mg/kg
- anti-convulsant activity in words [5]: effective against a wide range of convulsion types; also recorded: exhibits anti-convulsant activity in mice and rats
- Rotorod TD50 ([6]; mice, intraperitoneal): 170.78 mg/kg
- ED50 ([7]; intraperitoneal): 39.1 mg/kg
- activity against seizures induced by bicuculline ([7]; mice, in words): effective against seizures induced by bicuculline
- PI (TD50/ED50) Bicuculline ([7]; mice, intraperitoneal): 4.37
- TD50 [8]: 170 mg/kg
- animals toxic ([9]; 75 mg/kg): 2/8
- animals toxic ([9]; 150 mg/kg): 6/8
- ED50 [10]: 191 mg/kg
- selectivity ratio ([11]; read-out: Ratio LD50/HD50): 1.56
- selectivity ratio ([11]; read-out: Ratio LD50/TD50): 4.21
- LD50 at 24 h [11]: 718 mg/kg
- activity against picrotoxin seizures ([12]; in words): effective against picrotoxin seizures in toxic doses
- PI (TD50/ED50) Picrotoxin ([12]; intraperitoneal): 0.89
- selectivity ratio ([13]; ip): 9.48
- selectivity ratio ([13]; po): 5.69
- selectivity ratio ([14]; intraperitoneal): 4.09
- selectivity ratio ([14]; oral): < 0.9
- ED50 ([15]; ip): 41.7 mg/kg
- Maximum protection, sc Met ([15]; mice, oral, at 100 (mg/kg)): 25%
- protection, sc Met [15, 26]: no protection and No
- mutagenic activity ([16]; absence of a metabolic activation system): negative
- mutagenic activity ([16]; rat liver activation system): negative
- oral ED50/i.p. ED50 ([17]; MES test in mice): 2.65
- ED50 ([17]; ip): 18 mg/kg
- ED50 ([17]; po): 47.7 mg/kg
- absorption after oral administration ([17]; mice, from oral ED50/i.p. ED50 in MES test): adequately absorbed
- activity against seizures induced by strychnine ([18]; in words): only partially effective
- PI (TD50/ED50) Strychnine ([18]; intraperitoneal): < 0.85
- Maximum protection, Strychnine ([18]; intraperitoneal, at 170 mg/kg): 37.5%
- protection, Strychnine ([18]; intraperitoneal, at 200 (mg/kg)): 25%
- animals protected vs sc Met test ([19]; 75 mg/kg): 4/8
- animals protected vs sc Met test ([19]; 150 mg/kg): 8/8
- Max. Prot., sc Met [19, 27]: 50%
- animals with recurring clonic seizures, sc Met [19, 27]: 1 of 8
- TD50 ([20]; ip): 171 mg/kg
- TD50 ([20]; po): 271 mg/kg

Compound: NC(=O)N1c2ccccc2C=Cc2ccccc21 [Carbamazepine]
- ED50 [2]: 8.5 mg/kg
- ED50 [21]: 78.8 mg/kg
- fraction protected, Bicuculline ([7]; mice, intraperitoneal, 100 mg/kg): 1/2
- Max. Prot., Bicuculline ([7]; mice, intraperitoneal, at 50-130 (mg/kg)): 62.5%
- ED50 [10]: 37.2 mg/kg
- LD50 at 24 h [11]: 629 mg/kg
- TD50 [22]: 172 mg/kg
- ED50 ([15]; po): 48.1 mg/kg
- protection, sc Met [15, 28]: No protection; also recorded: No protect-
- ED50 ([17]; ip): 8.81 mg/kg
- ED50 ([17]; po): 15.4 mg/kg
- sc Met result in words [19, 25]: Variable

Compound: CCC1(c2ccccc2)NC(=O)N(C)C1=O (stereo not shown) [Mephenytoin]
- selectivity ratio [1]: 4.74
- ED50 [2]: 18.1 mg/kg
- PI (TD50/ED50) Bicuculline ([7]; mice, intraperitoneal): 1.24
- TD50 [8]: 85.7 mg/kg
- ED50 [10]: 101 mg/kg
- selectivity ratio ([11]; read-out: Ratio LD50/HD50): 1.4
- selectivity ratio ([11]; read-out: Ratio LD50/TD50): 3.69
- LD50 at 24 h [11]: 568 mg/kg
- TD50 [22]: 406 mg/kg
- PI (TD50/ED50) Picrotoxin ([12]; intraperitoneal): 1.52
- selectivity ratio ([13]; ip, PI (TD50/ED50) MES, mice, intraperitoneal): 2.54
- selectivity ratio ([13]; po, PI (TD50/ED50) MES, mice): 5.37
- selectivity ratio ([14]; intraperitoneal): 5.05
- selectivity ratio ([14]; oral): 9.75
- ED50 ([15]; ip): 30.4 mg/kg
- ED50 ([15]; po): 36.3 mg/kg
- PI (TD50/ED50) sc Met ([15]; mice, oral): 9.73
- ED50 ([17]; ip): 60.5 mg/kg
- ED50 ([17]; po): 65.9 mg/kg
- Max. Prot., Strychnine ([18]; intraperitoneal, at 70-150 (mg/kg)): 50%
- selectivity ratio [23]: 3.96
- ED50 ([19]; read-out: ED50 sc Met): 21.6 mg/kg
- TD50 ([20]; po): 354 mg/kg

Compound: Nc1ccc(C(=O)NCc2ccccc2)cc1 [No. 4, 4-amino-N-benzyl-benzamide]
- ED50 ([17]; ip): 23.3 mg/kg
- TD50 ([20]; ip): 83.4 mg/kg

Compound: CCC1(c2ccccc2)C(=O)NC(=O)NC1=O [Phenobarbital]
- ED50 [2]: 9.14 mg/kg
- ED50 [21]: 95.3 mg/kg
- TD50 [3]: 135 mg/kg
- HD50 (righting reflex) [4]: 135.45 mg/kg
- ED50 ([7]; intraperitoneal): 37.7 mg/kg
- Rotorod TD50 [9, 25]: 61.09 mg/kg
- ED50 [10]: 27.5 mg/kg
- LD50 (lethality) [24]: 264.70 mg/kg
- ED50 ([15]; ip): 13.2 mg/kg
- ED50 ([15]; po): 12.6 mg/kg
- ED50 ([17]; ip): 21.8 mg/kg
- ED50 ([17]; po): 20.1 mg/kg
- ED50 ([19]; read-out: ED50 sc Met, rats (Table 7; title of Table 5 prints Mice), oral): 11.6 mg/kg
- ED50 sc Met [19, 25]: 11.58 mg/kg

Compound: O=C1NC(=O)C(c2ccccc2)(c2ccccc2)N1 [Phenytoin]
- ED50 [2]: 29.8 mg/kg
- protection, Bicuculline [7, 28]: No pro-
- TD50 [8]: > 3000 mg/kg
- LD50 (lethality) [24]: 229.61 mg/kg
- TD50 [22]: 178 mg/kg
- protection, Picrotoxin ([12]; intraperitoneal, up to 100 (mg/kg)): No pro-
- protection, sc Met [15, 28]: No pro-
- protection, sc Met ([15]; mice, intraperitoneal, up to 300 (mg/kg)): No protect-; also recorded: No protection
- protection, sc Met [15, 26]: No protection; also recorded: No pro-
- Max. Prot., Strychnine ([18]; intraperitoneal, at 55-100 (mg/kg)): 50%
- protection, sc Met ([19]; rats (Table 7; title of Table 5 prints Mice), oral, up to 800 (mg/kg)): No pro-

Compound: Nc1ccc(C(=O)Nc2ccccc2)cc1 [compound 1]
- TD50 ([6]; mouse, in vivo, ip): 111.30 mg/kg
- ED50 ([15]; ip): 59.1 mg/kg
- ED50 ([17]; ip): 50.5 mg/kg

Compound: Nc1ccc(C(=O)NC2CCCCC2)cc1 [compound 2]
- ED50 ([15]; ip): 123 mg/kg
- ED50 ([17]; ip): 67.2 mg/kg
- TD50 ([20]; ip): 189 mg/kg

Compound: CCCCCNC(=O)c1ccc(N)cc1 [compound 3]
- ED50 ([15]; ip): 57.3 mg/kg
- ED50 ([17]; ip): 43 mg/kg
- TD50 ([20]; ip): 68.5 mg/kg

Compound: CCCN(CCC)C(=O)c1ccc(N)cc1 [compound 5]
- ED50 ([17]; ip): 61.7 mg/kg
- TD50 ([20]; ip): 116 mg/kg
